Test results taken from ChEMBL document CHEMBL5376004, “Discovery and Development of Quinazolinones and Quinazolinediones for Ameliorating Nonalcoholic Fatty Liver Disease (NAFLD) by Modulating COP1-ATGL Axis” (J Med Chem, 2023).
In brackets after ≈: the same amount, converted by molar mass. Activity calls are given as the source filed them. The rule behind the calls is not given here.

What was measured:
COP1-AGTL (Homo sapiens) = COP1-AGTL (Homo sapiens) (UniProt Q96AD5+Q8NHY2); test: Induction of COP1 to ATGL stabilization (unknown origin) expressed in HEK293-A cells assessed as reduction in ATGL ubiquitination incubated for 6 hrs by Western blotting analysis; format: cell-based
COP1-AGTL (Homo sapiens), sequence (Q8NHY2 whole entry, looked up, one chain of several): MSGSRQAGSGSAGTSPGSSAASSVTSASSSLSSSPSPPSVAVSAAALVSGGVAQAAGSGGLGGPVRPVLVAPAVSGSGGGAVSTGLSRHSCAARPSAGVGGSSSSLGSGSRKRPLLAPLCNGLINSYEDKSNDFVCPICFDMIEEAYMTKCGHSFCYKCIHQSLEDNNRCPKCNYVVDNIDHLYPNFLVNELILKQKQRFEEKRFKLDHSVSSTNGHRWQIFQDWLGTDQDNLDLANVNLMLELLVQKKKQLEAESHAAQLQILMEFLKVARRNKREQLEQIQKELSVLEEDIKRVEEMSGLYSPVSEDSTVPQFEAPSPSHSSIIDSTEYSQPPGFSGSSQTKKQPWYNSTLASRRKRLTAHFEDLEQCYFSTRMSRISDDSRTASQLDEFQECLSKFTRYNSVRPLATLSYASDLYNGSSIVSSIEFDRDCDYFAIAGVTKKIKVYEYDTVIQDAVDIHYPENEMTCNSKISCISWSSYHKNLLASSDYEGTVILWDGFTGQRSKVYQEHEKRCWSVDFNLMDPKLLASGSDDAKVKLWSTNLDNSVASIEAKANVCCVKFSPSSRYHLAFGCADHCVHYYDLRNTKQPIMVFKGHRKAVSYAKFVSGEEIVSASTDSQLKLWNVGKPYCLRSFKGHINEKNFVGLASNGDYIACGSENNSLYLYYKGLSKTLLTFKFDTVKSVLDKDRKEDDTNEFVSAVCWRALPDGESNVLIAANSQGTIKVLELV

[1] = Lipophilicity, logD of compound; format: physicochemical; details: octanol/water
[2] = Aqueous solubility of compound at pH 7.4; format: physicochemical
[3] = Stability in mouse plasma assessed as compound remaining after 2 hrs; format: ADME, cell-free; details: read-out: Stability
[4] = Stability in human plasma assessed as compound remaining after 2 hrs; format: ADME, cell-free; details: read-out: Stability
[5] = Metabolic stability in mouse liver microsomes assessed as intrinsic clearance per mg of protein; format: ADME, Microsome; details: read-out: CLH
[6] = Metabolic stability in mouse liver microsomes assessed as half life; format: ADME, Microsome
[7] = Metabolic stability in mouse liver microsomes assessed as hepatic blood flow; format: ADME, Microsome; details: read-out: QH
[8] = Metabolic stability in human liver microsomes assessed as intrinsic clearance per mg of protein; format: ADME, Microsome; details: read-out: CLH
[9] = Metabolic stability in human liver microsomes assessed as half life; format: ADME, Microsome
[10] = Metabolic stability in human liver microsomes assessed as hepatic blood flow; format: ADME, Microsome; details: read-out: QH
[11] = molecular target: T1, Patatin-like phospholipase domain-containing protein 2 (Homo sapiens) (UniProt Q96AD5); test: Inhibition of ATGL ubiquitination in human HepG2 cells preincubated for 20 hrs followed by MG132 addition and measured after 4 hrs by immunoprecipitation method; format: cell-based; details: time 24.0 hrs
T1 sequence (whole entry): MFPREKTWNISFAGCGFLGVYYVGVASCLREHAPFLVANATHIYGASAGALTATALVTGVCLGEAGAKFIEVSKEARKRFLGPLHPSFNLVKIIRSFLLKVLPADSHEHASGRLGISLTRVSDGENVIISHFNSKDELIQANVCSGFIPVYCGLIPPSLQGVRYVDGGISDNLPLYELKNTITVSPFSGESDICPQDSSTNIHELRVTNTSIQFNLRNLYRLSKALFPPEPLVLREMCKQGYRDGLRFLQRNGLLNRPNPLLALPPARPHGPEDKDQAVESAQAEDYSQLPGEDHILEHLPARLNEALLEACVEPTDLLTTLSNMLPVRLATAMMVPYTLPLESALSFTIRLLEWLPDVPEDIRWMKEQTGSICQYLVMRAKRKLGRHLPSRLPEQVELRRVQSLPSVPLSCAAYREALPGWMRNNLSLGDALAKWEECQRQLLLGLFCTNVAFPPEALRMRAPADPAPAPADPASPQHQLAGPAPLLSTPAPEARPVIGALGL

[12] = molecular target: E3 ubiquitin-protein ligase COP1 (Homo sapiens) (UniProt Q8NHY2); test: Inhibition of COP1 auto-ubiquitination in human HepG2 cells preincubated for 20 hrs followed by MG132 addition and measured after 4 hrs by immunoprecipitation method; format: cell-based; details: time 24.0 hrs
E3 ubiquitin-protein ligase COP1 (Homo sapiens), sequence (Q8NHY2 whole entry): as the sequence (Q8NHY2 whole entry, looked up, one chain of several) above

HepG2 [13] = test: Reduction in lipid droplets in human HepG2 cells at 100 nM incubated for 24 hrs by Hoechst 33342 staining based confocal microscopic analysis; format: functional, cell-based
Hepatocyte [14] = test: Upregulation of ATGL protein level in mouse primary hepatocytes incubated for 24 hrs by Western blotting analysis; format: functional, cell-based; details: dose 10-500 nM
Mus musculus [15] = species: Mus musculus; test: Upregulation of ATGL protein level in mouse primary adipose tissue incubated for 24 hrs by Western blotting analysis; format: functional, tissue-based; details: dose 100-1000 nM
HepG2 [16] = test: Reduction in lipid droplets in human HepG2 cells by […] staining based confocal microscopic analysis; format: functional, cell-based
Hepatocyte [17] = test: Reduction in lipid droplets in oleate induced mouse primary hepatocytes at 100 nM by BODIPY493/503 staining based confocal microscopic analysis; format: functional, cell-based
[18] = molecular target: T1, Patatin-like phospholipase domain-containing protein 2 (Homo sapiens); test: Inhibition of ATGL ubiquitination (unknown origin) expressed in HEK293-A cells incubated for 6 hrs by Western blotting analysis; format: cell-based
HepG2 [19] = test: Effect on ATGL mRNA level in human HepG2 cells at 50 to 5000 nM after 24 hrs by RT-qPCR analysis; format: functional, cell-based; details: dose 50-5000 nM
HepG2 [20] = test: Effect on COP1 in human HepG2 cells assessed as change in c-Jun level at 10 to 500 nM by RT-qPCR analysis; format: functional, cell-based; details: dose 10-500 nM
HepG2 [21] = test: Effect on COP1 in human HepG2 cells assessed as change in p53 level at 10 to 500 nM by RT-qPCR analysis; format: functional, cell-based; details: dose 10-500 nM
HepG2 [22] = test: Cytotoxicity against human HepG2 cells upto 5 uM incubated for 24 hrs by MTT assay; format: toxicity, cell-based; details: hepg2, 24 h
Mus musculus [23] = test: Upregulation of ATGL expression level in C57BL/6 mouse liver at 80 mg/kg, po administered for 7 days; format: functional, organism-based; details: time 7.0 day
Mus musculus [24] = test: Upregulation of COP1 expression level in C57BL/6 mouse liver at 80 mg/kg, po administered for 7 days; format: functional, organism-based; details: time 7.0 day
Mus musculus [25] = test: Upregulation of ATGL expression level in C57BL/6 mouse adipose tissue at 80 mg/kg, po administered for 7 days; format: functional, organism-based; details: time 7.0 day
Mus musculus [26] = test: Upregulation of COP1 expression level in C57BL/6 mouse adipose tissue at 80 mg/kg, po administered for 7 days; format: functional, organism-based; details: time 7.0 day
Mus musculus [27] = test: Anti-NASH activity in high-fat diet induced nonalcoholic steatohepatitis C57BL/6 mouse assessed as appearance of darker liver at 80 mg/kg, po administered for 1 month; format: functional, organism-based; details: time 1.0 months
Mus musculus [28] = test: Anti-NASH activity in high-fat diet induced nonalcoholic steatohepatitis C57BL/6 mouse assessed as reduction in liver size at 80 mg/kg, po administered for 1 month; format: functional, organism-based; details: time 1.0 months
Mus musculus [29] = test: Anti-NASH activity in high-fat diet induced nonalcoholic steatohepatitis C57BL/6 mouse assessed as reduction in body weight at 80 mg/kg, po administered for 1 month; format: functional, organism-based; details: time 1.0 months
Mus musculus [30] = test: Anti-NASH activity in high-fat diet induced nonalcoholic steatohepatitis C57BL/6 mouse assessed as reduction in liver weight at 80 mg/kg, po administered for 1 month; format: functional, organism-based; details: time 1.0 months
Mus musculus [31] = test: Anti-NASH activity in high-fat diet induced nonalcoholic steatohepatitis C57BL/6 mouse assessed as reduction in liver triglyceride level at 80 mg/kg, po administered for 1 month; format: functional, organism-based; details: time 1.0 months
Mus musculus [32] = test: Anti-NASH activity in high-fat diet induced nonalcoholic steatohepatitis C57BL/6 mouse assessed as reduction in accumulation of fat droplets at 80 mg/kg, po administered for 1 month by H and E staining based assay; format: functional, organism-based; details: time 1.0 months
Mus musculus [33] = test: Anti-NASH activity in high-fat diet induced nonalcoholic steatohepatitis C57BL/6 mouse assessed as reduction in liver collagen fiber content at 80 mg/kg, po administered for 1 month by sirius red staining based assay; format: functional, organism-based; details: time 1.0 months
[34] = Toxicity in C57BL/6 mouse assessed as change in liver morphology by H and E staining based histological analysis; format: tissue-based; details: in vivo
[35] = Toxicity in C57BL/6 mouse assessed as change in lung morphology by H and E staining based histological analysis; format: tissue-based; details: in vivo
[36] = Toxicity in C57BL/6 mouse assessed as change in kidney morphology by H and E staining based histological analysis; details: in vivo
[37] = Toxicity in C57BL/6 mouse assessed as inflammatory infiltration; details: in vivo
[38] = Toxicity in C57BL/6 mouse assessed as change in kidney tubular structure; format: tissue-based; details: in vivo

Activity (COP1-AGTL (Homo sapiens))	logD [1]	solubility [2] [µg/mL]	remaining at 2 h [3] [%]	remaining at 2 h [4] [%]	microsomal CLint [5] [µL/min/mg]	half-life [6] [min]	hepatic extraction ratio [7]	microsomal CLint [8] [µL/min/mg]	half-life [9] [min]	hepatic extraction ratio [10]	inhibition [18]	SMILES	Activity (Hepatocyte [14])	Activity (Mus musculus [15])	Activity (HepG2 [16])	Activity (HepG2 [19])	Activity (HepG2 [20])	Activity (HepG2 [21])	Activity (HepG2 [22])	Activity (Mus musculus [23])	also measured
Active	2.78	116 (≈ 228 µM)	103	110	56.2	12.3	0.605	28.3	24.5	0.567	Active	COCCn1c(=O)c2cc(NC(=O)Nc3cccc(C(C)=O)c3)ccc2n(CCN2CCCCC2)c1=O	Dose-Dependent Effect	inactive	Active	inactive	inactive	inactive	Non-Toxic	Active	inhibition [11]: Active; inhibition [12]: Active; Activity (HepG2 [13]): Active; Activity (Hepatocyte [17]): Active; Activity (Mus musculus [24]): Active; Activity (Mus musculus [25]): inactive; Activity (Mus musculus [26]): inactive; Activity (Mus musculus [27]): Active; Activity (Mus musculus [28]): Active; Activity (Mus musculus [29]): Active; Activity (Mus musculus [30]): Active; Activity (Mus musculus [31]): Active; Activity (Mus musculus [32]): Active; Activity (Mus musculus [33]): Active; Activity [34]: Non-Toxic; Activity [35]: Non-Toxic; Activity [36]: Non-Toxic; Activity [37]: Non-Toxic; Activity [38]: Non-Toxic
Active	2.38	2.56 (≈ 6.73 µM)	14.2	16.9	8.15	87	0.181	5.84	119	0.213	Active	COCCn1cnc2ccc(NC(=O)Nc3cccc(C(C)=O)c3)cc2c1=O	Dose-Dependent Effect	inactive	Active	inactive	inactive	inactive	Non-Toxic	Active	Activity (Mus musculus [24]): Active; Activity (Mus musculus [25]): inactive; Activity (Mus musculus [26]): inactive; Activity (Mus musculus [27]): Active; Activity (Mus musculus [28]): Active; Activity (Mus musculus [29]): Active; Activity (Mus musculus [30]): Active; Activity (Mus musculus [31]): Active; Activity (Mus musculus [32]): Active; Activity (Mus musculus [33]): Active; Activity [34]: Non-Toxic; Activity [35]: Non-Toxic; Activity [36]: Non-Toxic; Activity [37]: Non-Toxic; Activity [38]: Non-Toxic
